PMC13050904, “Sensitivity to cuticular hydrocarbons across the odorant receptor family in the Indian jumping ant, Harpegnathos saltator” (Frontiers in Insect Science, 2026)

Assays:
HsOr152 = target: T1, HsOr152 (Harpegnathos saltator, UniProt Z9SO02V7Q0); test: single-sensillum recording of Drosophila ab2A neurons expressing the receptor; assay type: cell-based; details: 20 nmol dosed on heated cartridge; with DmOrco; excitatory; solvent (pentane) response subtracted
T1 construct: V subfamily OR; full-length, UAS-HsOr152 (pUASg.attB, attP40) in D. melanogaster ab2A neurons by Orco-GAL4; complex with endogenous DmOrco (D. melanogaster); with Odorant receptor coreceptor (Drosophila melanogaster)
T1 sequence (Z9SO02V7Q0 1-385): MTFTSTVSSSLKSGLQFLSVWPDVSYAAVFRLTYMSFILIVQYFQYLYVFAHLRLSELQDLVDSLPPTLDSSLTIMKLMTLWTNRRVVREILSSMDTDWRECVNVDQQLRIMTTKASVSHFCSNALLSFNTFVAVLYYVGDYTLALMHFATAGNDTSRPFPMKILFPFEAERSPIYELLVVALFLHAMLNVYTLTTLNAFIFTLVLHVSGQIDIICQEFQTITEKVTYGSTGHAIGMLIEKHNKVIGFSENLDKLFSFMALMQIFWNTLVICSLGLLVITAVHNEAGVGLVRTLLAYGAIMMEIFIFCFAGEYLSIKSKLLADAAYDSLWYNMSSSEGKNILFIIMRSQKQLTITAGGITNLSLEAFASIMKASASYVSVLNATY
T1 sequence (Q9VNB5 1-486 partner): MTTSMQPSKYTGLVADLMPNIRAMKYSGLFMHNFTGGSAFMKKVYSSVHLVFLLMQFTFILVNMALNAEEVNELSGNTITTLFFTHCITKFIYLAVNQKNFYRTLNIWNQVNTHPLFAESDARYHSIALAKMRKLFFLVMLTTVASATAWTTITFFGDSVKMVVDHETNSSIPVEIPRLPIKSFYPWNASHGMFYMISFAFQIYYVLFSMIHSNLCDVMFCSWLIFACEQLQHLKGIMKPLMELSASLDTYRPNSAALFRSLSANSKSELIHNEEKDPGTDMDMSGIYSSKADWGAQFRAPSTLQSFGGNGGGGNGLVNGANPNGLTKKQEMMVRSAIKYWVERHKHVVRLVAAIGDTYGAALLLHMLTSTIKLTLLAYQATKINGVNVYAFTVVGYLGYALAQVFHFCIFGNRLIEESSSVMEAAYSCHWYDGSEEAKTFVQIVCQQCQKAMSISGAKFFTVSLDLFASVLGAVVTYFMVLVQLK

HsOr115 = target: T2, HsOr115 (Harpegnathos saltator, UniProt Z9I713BLV2); test: as above; assay type: cell-based; details: 20 nmol dosed on heated cartridge; with DmOrco; excitatory; solvent (pentane) response subtracted
T2 construct: full-length, UAS-HsOr (pUASg.attB, attP40) in D. melanogaster ab2A neurons by Orco-GAL4; complex with endogenous DmOrco (D. melanogaster); with Odorant receptor coreceptor (Drosophila melanogaster)
T2 sequence (Z9I713BLV2 1-398): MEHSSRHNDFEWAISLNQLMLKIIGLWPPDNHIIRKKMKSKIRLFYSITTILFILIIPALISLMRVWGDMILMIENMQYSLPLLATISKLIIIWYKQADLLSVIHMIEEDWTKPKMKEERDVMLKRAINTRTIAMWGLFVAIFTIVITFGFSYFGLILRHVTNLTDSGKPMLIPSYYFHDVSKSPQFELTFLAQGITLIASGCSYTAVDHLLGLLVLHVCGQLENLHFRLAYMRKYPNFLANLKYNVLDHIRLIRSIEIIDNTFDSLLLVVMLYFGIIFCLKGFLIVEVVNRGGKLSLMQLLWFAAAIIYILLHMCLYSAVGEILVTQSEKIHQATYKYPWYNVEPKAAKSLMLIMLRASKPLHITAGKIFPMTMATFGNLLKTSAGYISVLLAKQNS
T2 sequence (Q9VNB5 1-486 partner): T1 sequence (Q9VNB5 1-486 partner)

Structure (SMILES)	mean response (Δspikes/s) at 20 nmol (HsOr152)	response (Δspikes/s) at 20 nmol (HsOr115)
CCCCCCCCCCCCCCCCCCCCCCCCCCCC [C28, octacosane]	87.5 Δspikes/s	–
CCCCCCCCCCCCCCCCCCCCCCCCCCCCCC [C30]	–	33.0 Δspikes/s
